{"source": "patent US20250319140A1", "about": "“COMPOSITION” (MEIJI CO., LTD., priority 2019, published 2025)", "key": {"[1]": {"assay": "Weight gain suppressing effect in mice fed a high fat diet (body weight, weight gain, fat weight around the testes)", "type": "in vivo", "conditions": "male C57BL/6J mice, compared with control group", "protocol": "Male, 8-week-old C57BL/6J mice were divided into 5 groups and fed with a normal diet (AIN-93M) (manufactured by Oriental Yeast Co., Ltd.) or a high fat diet (HFD-60) (manufactured by Oriental Yeast Co., Ltd.). The groups fed with a high fat diet were administered with fructo-oligosaccharide (hereinafter, also referred to as “FOS”), a propionic acid bacterium (Propionibacterium freudenreichii ET-3, Accession No. FERM BP-8115, hereinafter also referred to as “P bacterium”), or both FOS and a propionic acid bacterium (hereinafter, also referred to as “FOS+P bacterium”), and bred for 8 weeks. The group fed with the high fat diet, but not administered with FOS and a propionic acid bacterium was defined as a control group. Meioligo™ P (manufactured by Meiji Food Materia Co., Ltd.) was used as FOS, which was incorporated in the high fat diet in an amount of 5% by mass, and administered. A bacterial solution (living cells) activated and cultured in GAM bouillon (manufactured by Nissui Pharmaceutical Co., Ltd.) was washed with physiological saline, and then the number of propionic acid bacteria was adjusted to 5×10^9 cfu/mL to prepare a propionic acid bacterium. This bacterial solution was forcibly administered orally at a dose of 0.2 mL once daily every day from the start date to the end date of the test. To the groups not administered with the propionic acid bacterium (normal diet group, control group and FOS-administered group), physiological saline was forcibly administered orally at a dose of 0.2 mL once daily every day from the start date to the end date of the test. The body weight during the test period, the fat weight around the testes at the time of dissection, and the propionic acid concentration in feces collected at the end day of the test were measured, and the amount of weight gain was calculated from the body weights at the start and end of the test, and used for evaluation."}, "[2]": {"system": "propionic acid production in the intestine", "assay": "Propionic acid concentration in feces of high fat diet-fed mice, measured by HPLC", "type": "in vivo", "conditions": "male C57BL/6J mice, feces collected at the end day of the test, compared with control group, P <0.05 paired t-test for the combination", "protocol": "Male, 8-week-old C57BL/6J mice were divided into 5 groups and fed with a normal diet (AIN-93M) (manufactured by Oriental Yeast Co., Ltd.) or a high fat diet (HFD-60) (manufactured by Oriental Yeast Co., Ltd.). The groups fed with a high fat diet were administered with fructo-oligosaccharide (hereinafter, also referred to as “FOS”), a propionic acid bacterium (Propionibacterium freudenreichii ET-3, Accession No. FERM BP-8115, hereinafter also referred to as “P bacterium”), or both FOS and a propionic acid bacterium (hereinafter, also referred to as “FOS+P bacterium”), and bred for 8 weeks. The group fed with the high fat diet, but not administered with FOS and a propionic acid bacterium was defined as a control group. Meioligo™ P (manufactured by Meiji Food Materia Co., Ltd.) was used as FOS, which was incorporated in the high fat diet in an amount of 5% by mass, and administered. […] The body weight during the test period, the fat weight around the testes at the time of dissection, and the propionic acid concentration in feces collected at the end day of the test were measured, and the amount of weight gain was calculated from the body weights at the start and end of the test, and used for evaluation.\nThe propionic acid concentration in the feces was measured by HPLC after extracting the propionic acid from the feces. […]"}}}
{"substance": "Propionibacterium freudenreichii ET-3 [propionic acid bacterium]", "values": [{"measurement": "body weight", "setting": "[1]; high fat diet (HFD-60), from the 6th week on of 8 weeks breeding", "result": "lower in the propionic acid bacterium-administered group than those in the control group"}, {"measurement": "fat weight around the testes", "setting": "[1]; high fat diet, at dissection at end of 8-week test", "result": "low"}, {"measurement": "amount of weight gain", "setting": "[1]; high fat diet, end day of the test (8 weeks) relative to initial body weight", "result": "low"}, {"measurement": "propionic acid concentration in the feces", "setting": "[2]", "result": "clearly higher than that in the control group"}]}
